According to PubChem BioAssay AID2060607 (Molecular Pharmacology Branch, DTP, NCI, 2025):

System: 876862-298-R-J1-PDC complex spheroids, viability % test/control
Assay: Anticancer human tumor 876862-298-R-J1-PDC patient-derived endometrial carcinoma cell line growth inhibition [CLK]
Conditions: for IC50: curve of first compound; for viability, T/C: stronger effect = lower value
How it was run: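 Multi-cell-type spheroids combined patient-derived tumor cells with HUVEC endothelial cells and human mesenchymal stem cells. Paired agents were dosed in half-log steps down from about clinical Cmax, or from 10 microM where Cmax was unknown.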

[1] = second compound 0.0316 µM, first compound 0.00949 µM
[2] = second compound 0.0316 µM, first compound 0.03 µM
[3] = second compound 0.0316 µM, first compound 0.0949 µM
[4] = second compound 0.0316 µM, first compound 0.3 µM
[5] = second compound 0.1 µM, first compound 0.00949 µM
[6] = second compound 0.1 µM, first compound 0.03 µM
[7] = second compound 0.1 µM, first compound 0.0949 µM
[8] = second compound 0.1 µM, first compound 0.3 µM
[9] = second compound 0.316 µM, first compound 0.00949 µM
[10] = second compound 0.316 µM, first compound 0.03 µM
[11] = second compound 0.316 µM, first compound 0.0949 µM
[12] = second compound 0.316 µM, first compound 0.3 µM
[13] = second compound 1 µM, first compound 0.00949 µM
[14] = second compound 1 µM, first compound 0.03 µM
[15] = second compound 1 µM, first compound 0.0949 µM
[16] = second compound 1 µM, first compound 0.3 µM
[17] = second compound 3.16 µM, first compound 0.00949 µM
[18] = second compound 3.16 µM, first compound 0.03 µM
[19] = second compound 3.16 µM, first compound 0.0949 µM
[20] = second compound 3.16 µM, first compound 0.3 µM
[21] = second compound 10 µM, first compound 0.00949 µM
[22] = second compound 10 µM, first compound 0.03 µM
[23] = second compound 10 µM, first compound 0.0949 µM
[24] = second compound 10 µM, first compound 0.3 µM
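Also: spheroids exposed to drugs for 7 days before readout.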
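For viability, T/C in this document: 100% = DMSO vehicle control wells.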

## C=CC(=O)Nc1cc(Nc2nccc(-c3cn(C)c4ccccc34)n2)c(OC)cc1N(C)CCN(C)C + CNC(=O)c1ccc(Nc2nc(OC3CCCC3)c3c(-c4ccc5nc(C)oc5c4)c[nH]c3n2)c(OC)c1
Second compound 0.0316 µM
  IC50: 170 nM
Second compound 0.1 µM
  IC50: < 0.949 nM
Second compound 0.316 µM
  IC50: < 0.949 nM
Second compound 1 µM
  IC50: < 0.949 nM
Second compound 3.16 µM
  IC50: < 0.949 nM
Second compound 10 µM
  IC50: < 0.949 nM
Second compound 0.0316 µM, first compound 0.000949 µM
  viability, T/C: 74.5%
Second compound 0.0316 µM, first compound 0.003 µM
  viability, T/C: 79.6%
[1]
  viability, T/C: 69.1%
[2]
  viability, T/C: 64%
[3]
  viability, T/C: 53.5%
[4]
  viability, T/C: 46.6%
Second compound 0.1 µM, first compound 0.000949 µM
  viability, T/C: 49.2%
Second compound 0.1 µM, first compound 0.003 µM
  viability, T/C: 46%
[5]
  viability, T/C: 44.2%
[6]
  viability, T/C: 44.1%
[7]
  viability, T/C: 41.7%
[8]
  viability, T/C: 31.3%
Second compound 0.316 µM, first compound 0.000949 µM
  viability, T/C: 46.4%
Second compound 0.316 µM, first compound 0.003 µM
  viability, T/C: 41.3%
[9]
  viability, T/C: 42.3%
[10]
  viability, T/C: 41.1%
[11]
  viability, T/C: 34%
[12]
  viability, T/C: 27.8%
Second compound 1 µM, first compound 0.000949 µM
  viability, T/C: 36.5%
Second compound 1 µM, first compound 0.003 µM
  viability, T/C: 30.8%
[13]
  viability, T/C: 32.7%
[14]
  viability, T/C: 26.9%
[15]
  viability, T/C: 30.2%
[16]
  viability, T/C: 27.4%
Second compound 3.16 µM, first compound 0.000949 µM
  viability, T/C: 24.1%
Second compound 3.16 µM, first compound 0.003 µM
  viability, T/C: 27.6%
[17]
  viability, T/C: 19.2%
[18]
  viability, T/C: 20.9%
[19]
  viability, T/C: 20%
[20]
  viability, T/C: 19%
Second compound 10 µM, first compound 0.000949 µM
  viability, T/C: 23.1%
Second compound 10 µM, first compound 0.003 µM
  viability, T/C: 23.4%
[21]
  viability, T/C: 21.7%
[22]
  viability, T/C: 19.7%
[23]
  viability, T/C: 17.9%
[24]
  viability, T/C: 17.4%

## NC(=O)C(=Cn1cnc(-c2cc(C(F)(F)F)cc(C(F)(F)F)c2)n1)c1cncnc1 + CNC(=O)c1ccc(Nc2nc(OC3CCCC3)c3c(-c4ccc5nc(C)oc5c4)c[nH]c3n2)c(OC)c1
Second compound 0.0316 µM
  IC50: 19.4 nM
Second compound 0.1 µM
  IC50: < 9.49 nM
Second compound 0.316 µM
  IC50: < 9.49 nM
Second compound 1 µM
  IC50: < 9.49 nM
Second compound 3.16 µM
  IC50: < 9.49 nM
Second compound 10 µM
  IC50: < 9.49 nM
[1]
  viability, T/C: 52.2%
[2]
  viability, T/C: 49.7%
[3]
  viability, T/C: 35.9%
[4]
  viability, T/C: 25%
Second compound 0.0316 µM, first compound 0.949 µM
  viability, T/C: 9.87%
Second compound 0.0316 µM, first compound 3 µM
  viability, T/C: 8.36%
[5]
  viability, T/C: 37.7%
[6]
  viability, T/C: 34.3%
[7]
  viability, T/C: 27.8%
[8]
  viability, T/C: 19.4%
Second compound 0.1 µM, first compound 0.949 µM
  viability, T/C: 8.19%
Second compound 0.1 µM, first compound 3 µM
  viability, T/C: 5.57%
[9]
  viability, T/C: 35.7%
[10]
  viability, T/C: 24.1%
[11]
  viability, T/C: 21.8%
[12]
  viability, T/C: 14.3%
Second compound 0.316 µM, first compound 0.949 µM
  viability, T/C: 4.08%
Second compound 0.316 µM, first compound 3 µM
  viability, T/C: 1.39%
[13]
  viability, T/C: 24.4%
[14]
  viability, T/C: 21.2%
[15]
  viability, T/C: 15.8%
[16]
  viability, T/C: 6.44%
Second compound 1 µM, first compound 0.949 µM
  viability, T/C: 2.52%
Second compound 1 µM, first compound 3 µM
  viability, T/C: 1.7%
[17]
  viability, T/C: 19.2%
[18]
  viability, T/C: 13.5%
[19]
  viability, T/C: 6.99%
[20]
  viability, T/C: 2.31%
Second compound 3.16 µM, first compound 0.949 µM
  viability, T/C: 2.53%
Second compound 3.16 µM, first compound 3 µM
  viability, T/C: 1.98%
[21]
  viability, T/C: 17.8%
[22]
  viability, T/C: 13.8%
[23]
  viability, T/C: 5.85%
[24]
  viability, T/C: 1.75%
Second compound 10 µM, first compound 0.949 µM
  viability, T/C: 1.16%
Second compound 10 µM, first compound 3 µM
  viability, T/C: 0.58%

## Nc1ccccc1NC(=O)c1ccc(CNC(=O)OCc2cccnc2)cc1 + CNC(=O)c1ccc(Nc2nc(OC3CCCC3)c3c(-c4ccc5nc(C)oc5c4)c[nH]c3n2)c(OC)c1
Second compound 0.0316 µM
  IC50: 3670 nM
Second compound 0.1 µM
  IC50: 1070 nM
Second compound 0.316 µM
  IC50: < 31.6 nM
Second compound 1 µM
  IC50: < 31.6 nM
Second compound 3.16 µM
  IC50: < 31.6 nM
Second compound 10 µM
  IC50: < 31.6 nM
Second compound 0.0316 µM, first compound 0.0316 µM
  viability, T/C: 71.4%
Second compound 0.0316 µM, first compound 0.1 µM
  viability, T/C: 88.4%
Second compound 0.0316 µM, first compound 0.316 µM
  viability, T/C: 82.8%
Second compound 0.0316 µM, first compound 1 µM
  viability, T/C: 80.6%
Second compound 0.0316 µM, first compound 3.16 µM
  viability, T/C: 53.1%
Second compound 0.0316 µM, first compound 10 µM
  viability, T/C: 29.2%
Second compound 0.1 µM, first compound 0.0316 µM
  viability, T/C: 46.3%
Second compound 0.1 µM, first compound 0.1 µM
  viability, T/C: 45.3%
Second compound 0.1 µM, first compound 0.316 µM
  viability, T/C: 62.3%
Second compound 0.1 µM, first compound 1 µM
  viability, T/C: 50.2%
Second compound 0.1 µM, first compound 3.16 µM
  viability, T/C: 39.4%
Second compound 0.1 µM, first compound 10 µM
  viability, T/C: 24.9%
Second compound 0.316 µM, first compound 0.0316 µM
  viability, T/C: 41.2%
Second compound 0.316 µM, first compound 0.1 µM
  viability, T/C: 43.8%
Second compound 0.316 µM, first compound 0.316 µM
  viability, T/C: 44.7%
Second compound 0.316 µM, first compound 1 µM
  viability, T/C: 40.9%
Second compound 0.316 µM, first compound 3.16 µM
  viability, T/C: 27.3%
Second compound 0.316 µM, first compound 10 µM
  viability, T/C: 16.9%
Second compound 1 µM, first compound 0.0316 µM
  viability, T/C: 33.4%
Second compound 1 µM, first compound 0.1 µM
  viability, T/C: 31.7%
Second compound 1 µM, first compound 0.316 µM
  viability, T/C: 32.5%
Second compound 1 µM, first compound 1 µM
  viability, T/C: 27.1%
Second compound 1 µM, first compound 3.16 µM
  viability, T/C: 15.7%
Second compound 1 µM, first compound 10 µM
  viability, T/C: 9.26%
Second compound 3.16 µM, first compound 0.0316 µM
  viability, T/C: 25%
Second compound 3.16 µM, first compound 0.1 µM
  viability, T/C: 22.5%
Second compound 3.16 µM, first compound 0.316 µM
  viability, T/C: 22.5%
Second compound 3.16 µM, first compound 1 µM
  viability, T/C: 16.1%
Second compound 3.16 µM, first compound 3.16 µM
  viability, T/C: 12.1%
Second compound 3.16 µM, first compound 10 µM
  viability, T/C: 2.17%
Second compound 10 µM, first compound 0.0316 µM
  viability, T/C: 21%
Second compound 10 µM, first compound 0.1 µM
  viability, T/C: 22.2%
Second compound 10 µM, first compound 0.316 µM
  viability, T/C: 16.6%
Second compound 10 µM, first compound 1 µM
  viability, T/C: 15.7%
Second compound 10 µM, first compound 3.16 µM
  viability, T/C: 10%
Second compound 10 µM, first compound 10 µM
  viability, T/C: 0.74%
